Experimental data published in PubChem BioAssay (NCI).
Values joined by “and” are separate entries in the source; they are usually repeats but may differ in a detail not shown here. Identical values can stand only once.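 48-hour exposure; five concentrations; linearly interpolated endpoints. At the GI50, growth is halved. TGI: total growth inhibition.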

Columns and labels:
Experiment in all cases: NCI tumour cell line growth inhibition, 48 h
[1] = tested on: DLD-1 colon
[2] = tested on: LXFL 529 NSCLC
[3] = tested on: RXF-631 renal
[4] = tested on: SNB-78 CNS
[5] = tested on: HOP-18 NSCLC
[6] = tested on: KM20L2 colon
[7] = tested on: M19-MEL melanoma
[8] = tested on: DMS 114 small cell lung
[9] = tested on: MDA-N

Cc1ccc(/C=C/C(=O)c2ccc([N+](=O)[O-])cc2)cc1
TGI [1]: > 100 µM | TGI [2]: > 100 µM | TGI [3]: > 100 µM | TGI [4]: > 100 µM | TGI [5]: > 100 µM | TGI [6]: > 100 µM | TGI [7]: > 100 µM

C=C1CCC2C(C)(CO)C(O)CCC2(C)C1C/C=C1/CCOC1=O (stereo not drawn)
TGI [1]: > 100 µM | TGI [2]: > 100 µM | TGI [5]: > 100 µM | TGI [6]: > 100 µM | TGI [7]: > 100 µM

O=C1/C(=C/c2ccc(Cl)c(Cl)c2)CNC/C1=C\c1ccc(Cl)c(Cl)c1
TGI [1]: 3.84 µM | TGI [2]: 12.2 µM | TGI [8]: > 32.7 µM | TGI [3]: > 100 µM | TGI [4]: > 100 µM | TGI [9]: 39.9 µM | TGI [5]: > 91.9 µM | TGI [6]: 24.2 µM | TGI [7]: > 58.1 µM

CCCC(C)c1c(Cl)nc(Cl)nc1Cl (stereo not drawn)
TGI [9]: 21 µM

COc1ccc(N=Nc2c(-c3ccccc3)nn(C(=O)CC(=O)Nc3ccccc3Cl)c2-c2ccccc2)cc1
TGI [1]: > 100 µM | TGI [2]: > 100 µM | TGI [8]: > 100 µM | TGI [3]: > 100 µM | TGI [4]: > 100 µM | TGI [5]: > 100 µM | TGI [6]: > 100 µM | TGI [7]: > 100 µM

Cc1cccc(C(C)C)c1NC(=O)CCl
TGI [1]: > 100 µM | TGI [2]: > 100 µM | TGI [8]: 50 µM | TGI [4]: > 100 µM | TGI [5]: > 100 µM | TGI [6]: > 100 µM | TGI [7]: > 100 µM

CC(C)CN1CC(C)C(=O)NC1=O (stereo not drawn)
TGI [1]: > 100 µM | TGI [2]: > 100 µM | TGI [8]: > 100 µM | TGI [4]: > 100 µM | TGI [6]: > 100 µM | TGI [7]: > 100 µM

CN(C)C(=S)/N=c1\ss/c(=N\C(=S)N(C)C)n1Cc1ccco1
TGI [1]: > 100 µM | TGI [2]: > 100 µM | TGI [8]: > 100 µM | TGI [4]: > 100 µM | TGI [5]: > 100 µM | TGI [6]: > 100 µM | TGI [7]: > 100 µM

COc1ccc(OC(C)C(=O)O)c2c1CCCC2=O (stereo not drawn)
TGI [1]: > 100 µM | TGI [2]: > 100 µM | TGI [8]: > 100 µM | TGI [4]: > 100 µM | TGI [6]: > 100 µM | TGI [7]: > 100 µM

CCOC(=O)C(=O)Nc1ccccc1OCC
TGI [1]: > 100 µM | TGI [2]: > 100 µM | TGI [8]: > 100 µM | TGI [4]: > 100 µM | TGI [5]: > 100 µM | TGI [7]: > 100 µM

CC[C@H]1CN(C)[C@H]2Cc3c([nH]c4ccccc34)C(=O)C[C@H]1C2C(=O)OC (stereo partly drawn)
TGI [9]: > 100 µM

O=C1/C(=C/c2ccc(Cl)cc2)CCC1CN1CCOCC1 (stereo not drawn)
TGI [1]: 11.3 µM | TGI [2]: 6.88 µM | TGI [8]: 70.2 µM | TGI [3]: > 62.5 µM | TGI [4]: 48.9 µM | TGI [9]: 18.4 µM | TGI [5]: 29.7 µM | TGI [6]: 29.1 µM

O=C1C(Br)=C(Br)C(=O)c2ccccc21
TGI [1]: 35.2 µM and 67.5 µM | GI50 [2]: 19.2 µM and 5.82 µM | TGI [2]: 34 µM and 11.7 µM | GI50 [8]: 17.6 µM and 1.91 µM | TGI [8]: 34.9 µM and 6.91 µM | TGI [3]: 20.1 µM | GI50 [4]: 26.5 µM and 7.52 µM | TGI [4]: 48.9 µM and 18.4 µM | TGI [9]: 11.4 µM | TGI [5]: 35.5 µM | TGI [6]: > 100 µM and 32.1 µM | GI50 [7]: 16.1 µM and 6.98 µM | TGI [7]: 29.8 µM and 21.7 µM

OCC(O)COc1c(Cl)cc(Cl)cc1Cl (stereo not drawn)
TGI [1]: > 100 µM | TGI [2]: > 100 µM | TGI [8]: > 100 µM | TGI [3]: > 100 µM | TGI [4]: > 100 µM | TGI [5]: > 100 µM | TGI [6]: > 100 µM | TGI [7]: > 100 µM

O=C1CCCC(O)=C1SC1=C(O)CCCC1=O
TGI [1]: > 100 µM | TGI [3]: > 100 µM | TGI [4]: > 100 µM | TGI [5]: > 100 µM | TGI [7]: > 100 µM

O=c1ccn(C2(CO)C=C(CO)C(O)C2O)c(=O)[nH]1 (stereo not drawn)
TGI [1]: > 25.7 µM | TGI [2]: > 25.7 µM | TGI [8]: > 25.7 µM | TGI [3]: > 25.7 µM | TGI [4]: > 25.7 µM | TGI [5]: > 25.7 µM | TGI [6]: > 25.7 µM | TGI [7]: > 25.7 µM

CC#CC#C/C=C1\C=CC2(OC=CC2OC(C)=O)O1 (stereo not drawn)
TGI [1]: 34.3 µM | TGI [2]: 32.2 µM | TGI [8]: 45.6 µM | TGI [3]: 33.1 µM | TGI [4]: 18.7 µM | TGI [9]: 30.1 µM | TGI [6]: 10.2 µM

CCC(C)c1cccc(C)c1NC(=O)C(=O)Cc1nc2ccccc2s1 (stereo not drawn)
TGI [1]: > 100 µM | TGI [2]: > 100 µM | TGI [8]: > 100 µM | TGI [4]: > 100 µM | TGI [5]: > 100 µM | TGI [6]: > 100 µM | TGI [7]: > 100 µM

O=C(/C=C/c1ccccc1O)c1cccc2ccccc12
TGI [1]: > 100 µM | TGI [2]: > 100 µM | TGI [8]: > 92.2 µM | TGI [3]: > 100 µM | TGI [4]: > 100 µM | TGI [5]: > 100 µM | TGI [6]: > 100 µM | TGI [7]: > 100 µM

COC1C(CO)OC(n2c3c(Cl)cccc3c3c4c(c5c6cccc(Cl)c6[nH]c5c32)C(=O)NC4=O)C(O)C1O (stereo not drawn)
TGI [1]: > 100 µM | TGI [2]: > 100 µM | TGI [8]: > 100 µM | TGI [3]: 84.3 µM | TGI [4]: > 100 µM | TGI [9]: 3.15 µM | TGI [6]: > 100 µM | TGI [7]: 0.898 µM

CCCCCCCCCCCCCCCC(=O)OCC1OC(OC)C(NC(=O)N(CCCl)N=O)C(O)C1O (stereo not drawn)
TGI [1]: 37.9 µM | TGI [2]: 37.4 µM | TGI [8]: 46.4 µM | TGI [4]: > 85.5 µM | TGI [9]: 32 µM | TGI [5]: > 100 µM | TGI [6]: 58.4 µM | TGI [7]: > 89.6 µM

Nc1c(C(=O)NC23CC4CC(CC(C4)C2)C3)[n+]([O-])c2ccccc2[n+]1[O-]
TGI [1]: > 100 µM | TGI [2]: > 100 µM | TGI [4]: > 100 µM | TGI [5]: > 100 µM | TGI [6]: > 100 µM | TGI [7]: > 100 µM

CC(C)C[CH2][Ge]([CH2]CC(C)C)([CH2]CC(C)C)[CH2]CC(C)C
GI50 [9]: > 100 µM | TGI [9]: > 100 µM

N#Cc1cc([N+](=O)[O-])ccc1NC(=O)C(=O)C(C(=O)c1ccc2ccccc2c1)C1OCc2ccccc21 (stereo not drawn)
TGI [1]: 54.2 µM | TGI [2]: 13.7 µM | TGI [8]: 29.7 µM | TGI [3]: 37.5 µM | TGI [4]: 35.2 µM | TGI [6]: 42.6 µM | TGI [7]: 31.6 µM

O=S1c2ccccc2NC(c2ccc3ccccc3c2)CC1c1ccccc1 (stereo not drawn)
TGI [1]: 70.1 µM | TGI [2]: 30.5 µM | TGI [5]: > 100 µM | TGI [6]: 48.9 µM | TGI [7]: 43.3 µM

Cc1cn([C@H]2C[C@H](O)[C@@H](CO)O2)c(=O)nc1N
TGI [9]: > 100 µM

CCCC(=O)c1ccc(=O)n(C)c1
TGI [1]: > 100 µM | TGI [2]: > 100 µM | TGI [8]: > 100 µM | TGI [3]: > 100 µM | TGI [6]: > 100 µM | TGI [7]: > 100 µM

O=C(Oc1ccc2c(-c3ccccc3)c(C(=O)Nc3ccc(Cl)cc3)c(=O)oc2c1)c1ccccc1
TGI [1]: > 100 µM | TGI [8]: > 100 µM | TGI [5]: > 100 µM | TGI [6]: > 100 µM | TGI [7]: > 100 µM

CCOc1ccc(NCC2CC/C(=C\c3ccc(Cl)cc3)C2=O)cc1 (stereo not drawn)
TGI [1]: 26.6 µM | TGI [2]: 25.8 µM | TGI [8]: > 58.9 µM | TGI [4]: > 100 µM | TGI [5]: 54.6 µM | TGI [6]: > 55.8 µM | TGI [7]: > 58.6 µM

CN(C(=O)C12C3C4C1C1C2C3C41C(O)C(C)(C)C)C(C)(C)C (stereo not drawn)
TGI [1]: > 100 µM | TGI [2]: > 100 µM | TGI [8]: > 100 µM | TGI [3]: > 100 µM | TGI [4]: > 100 µM | TGI [6]: > 100 µM | TGI [7]: > 100 µM

CC(=O)OCCOCNC(=S)N/N=C(\C)c1cccs1
TGI [1]: > 100 µM | TGI [2]: > 100 µM | TGI [8]: > 100 µM | TGI [4]: > 100 µM | TGI [5]: > 100 µM | TGI [6]: > 100 µM | TGI [7]: > 100 µM

c1ccc2c(c1)Sc1ccccc1N2C1CN2CCC1CC2 (stereo not drawn)
TGI [1]: 29.6 µM | TGI [2]: 30.6 µM | TGI [8]: 35.3 µM | TGI [4]: 30 µM | TGI [5]: 47.5 µM | TGI [6]: 30.2 µM | TGI [7]: 29.7 µM

CN1C(=O)CCC1c1ccc2c(c1)oc(=O)n2C (stereo not drawn)
TGI [1]: > 100 µM | TGI [2]: > 100 µM | TGI [8]: > 100 µM | TGI [4]: > 100 µM | TGI [5]: > 100 µM | TGI [6]: > 100 µM | TGI [7]: > 100 µM

ClC1c2ccccc2C2(c3ccccc3)OOC1(c1ccccc1)O2 (stereo not drawn)
TGI [8]: 0.725 µM | TGI [4]: 3.19 µM | TGI [6]: 3.26 µM

CNc1ccc([N+](=O)[O-])c2c(NCCCN(C)C)ccnc12
TGI [8]: > 100 µM | TGI [4]: > 100 µM | TGI [6]: > 100 µM | TGI [7]: > 100 µM

CN(C)c1ccc2cc3ccc(N(C)C)cc3nc2c1
TGI [9]: 3.03 µM
